Where two headings read alike, the source gives them in different places. Square brackets hold non-standard residues; d marks the D form. Peptide text beside a SMILES is read from it. * marks the point of attachment. X1 = O=C(CSCC(=O)*)NCCN1C(=O)c2ccccc2C1=O; Aib = CC(C)(N)C(=O)O
Experiments:
Format in all cases: cell-based
GLP-1R [1] = molecular target: T1, GLP-1R (Homo sapiens, UniProt P43220); assay: PathHunter β-arrestin assay
Summary of the method: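 Cells (5,000/well) plated overnight, then exposed to a 22-point 2-fold agonist dilution series in medium with 0.2% BSA for 90 min at 37 °C, 5% CO2. PathHunter detection reagent added; after 3 h at room temperature in the dark, luminescence read.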

GLP-1R [2] = molecular target: T1, GLP-1R; assay: HitHunter cAMP assay (GLP-1R); conditions: cAMP; for Emax: read-out: (Emax) GLP-1R
Summary of the method: (§1)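 Suspension cells (10,000/well) in HBSS with 10 mM HEPES, 625 μM IBMX, 0.2% BSA exposed to 22-point 2-fold agonist series in duplicate for 30 min at room temperature. cAMP measured by antibody immunocompetition with overnight development, luminescence read-out.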

GIP-R = molecular target: T2, GIP-R (Homo sapiens, UniProt P48546); assay: HitHunter cAMP assay (GIP-R)
T2 sequence (P48546 22-466): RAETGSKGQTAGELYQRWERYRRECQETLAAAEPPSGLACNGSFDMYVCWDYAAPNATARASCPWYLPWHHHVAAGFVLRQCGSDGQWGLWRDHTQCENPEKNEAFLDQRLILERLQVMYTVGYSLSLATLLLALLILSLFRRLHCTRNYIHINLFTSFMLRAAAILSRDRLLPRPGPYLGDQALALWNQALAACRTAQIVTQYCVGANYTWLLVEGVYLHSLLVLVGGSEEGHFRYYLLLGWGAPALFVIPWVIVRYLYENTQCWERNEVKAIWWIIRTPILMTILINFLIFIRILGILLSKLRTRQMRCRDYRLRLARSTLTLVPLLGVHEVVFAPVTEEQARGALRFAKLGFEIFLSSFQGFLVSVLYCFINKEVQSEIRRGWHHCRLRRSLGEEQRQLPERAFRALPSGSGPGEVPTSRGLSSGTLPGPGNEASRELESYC
Summary of the method: as §1

[3] = Table 3; cAMP; read-out: (Emax) GIP-R
[4] = Table 3A; cAMP; read-out: (Emax) GIP-R
[5] = PathHunter β-arrestin assay, read-out: β-arrestin activity EC50
[6] = Table 3, read-out: EC50 GLP-1R/nM
[7] = Table 3A, read-out: EC50 GLP-1R/nM
[8] = Table 3; cAMP; read-out: EC50 GIP-R/nM
[9] = Table 3A; cAMP; read-out: EC50 GIP-R/nM

T1 sequence (P43220 24-463): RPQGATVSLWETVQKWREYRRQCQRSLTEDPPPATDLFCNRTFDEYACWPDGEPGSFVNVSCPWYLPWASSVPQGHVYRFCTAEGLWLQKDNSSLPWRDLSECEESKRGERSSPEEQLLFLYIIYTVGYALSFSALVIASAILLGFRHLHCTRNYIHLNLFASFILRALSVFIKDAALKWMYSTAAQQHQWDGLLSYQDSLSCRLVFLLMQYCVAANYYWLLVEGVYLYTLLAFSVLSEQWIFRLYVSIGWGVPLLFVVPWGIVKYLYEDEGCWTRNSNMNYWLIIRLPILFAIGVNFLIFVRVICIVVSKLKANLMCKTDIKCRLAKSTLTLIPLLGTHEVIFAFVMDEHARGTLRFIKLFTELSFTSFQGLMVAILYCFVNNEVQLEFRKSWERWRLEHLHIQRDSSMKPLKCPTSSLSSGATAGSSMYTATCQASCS

Row | Structure (SMILES) | EC50 (GLP-1R [1]) [nM] | EC50 (GLP-1R [2]; EC50 GLP-1R/nM, Table 3) [nM] | EC50 (GLP-1R [2]; EC50 GLP-1R/nM, Table 3A) [nM] | Emax (GLP-1R [2]; Table 3) [%] | Emax (GLP-1R [2]; Table 3A) [%] | Emax (GIP-R; [3]) [%] | Emax (GIP-R; [4]) [%] | EC50 (GIP-R; read-out: EC50 GIP-R/nM; Table 3; cAMP) [nM] | EC50 (GIP-R; read-out: EC50 GIP-R/nM; Table 3A; cAMP) [nM] | EC50 (GLP-1R [1]; [5]) [nM] | EC50 (GLP-1R [2]; [6]) [nM] | EC50 (GLP-1R [2]; [7]) [nM] | EC50 (GIP-R; [8]) [nM] | EC50 (GIP-R; [9]) [nM] | Emax at 1 µM (GIP-R; read-out: (Emax) GIP-R at 1 μM, Table 3; cAMP; at 1 μM) [%]
1 | CC[C@H](C)[C@H](NC(=O)[C@H](CO)NC(=O)[C@H](Cc1ccc(O)cc1)NC(=O)[C@H](CC(=O)O)NC(=O)[C@H](CO)NC(=O)[C@@H](NC(=O)[C@H](Cc1ccccc1)NC(=O)[C@@H](NC(=O)CNC(=O)[C@H](CCC(=O)O)NC(=O)CSCC(=O)NCCN1C(=O)c2ccccc2C1=O)[C@@H](C)O)[C@@H](C)O)C(=O)N[C@@H](Cc1ccc(O)cc1)C(=O)N[C@@H](CC(C)C)C(=O)N[C@@H](CC(=O)O)C(=O)N[C@@H](CCCNC(=N)N)C(=O)N[C@@H](CCC(N)=O)C(=O)N[C@@H](C)C(=O)N[C@@H](C)C(=O)NC(C)(C)C(=O)N[C@@H](CCC(=O)O)C(=O)N[C@@H](Cc1ccccc1)C(=O)N[C@H](C(=O)N[C@@H](CC(N)=O)C(=O)N[C@@H](Cc1c[nH]c2ccccc12)C(=O)N[C@@H](CC(C)C)C(=O)N[C@@H](CC(C)C)C(=O)N[C@@H](C)C(=O)NCC(=O)NCC(=O)N1CCC[C@H]1C(=O)N[C@@H](CO)C(=O)N[C@@H](CO)C(=O)NCC(=O)N[C@@H](C)C(=O)N1CCC[C@H]1C(=O)N1CCC[C@H]1C(=O)N1CCC[C@H]1C(=O)N[C@@H](CO)C(N)=O)C(C)C [Compound 190] (X1-EGTFTSDYSIYLDRQAA[Aib]EFVNWLLAGGPSSGAPPPS-NH2) | > 1000 | 1 to 10 | 1 to 10 | 97 to 119 | 97 to 119 | 88 to 119 | 88 to 119 | 0.1 to 10 | 0.1 to 10 |  |  |  |  |  | 
2 | CC[C@H](C)[C@H](NC(=O)[C@H](CO)NC(=O)[C@H](Cc1ccc(O)cc1)NC(=O)[C@H](CC(=O)O)NC(=O)[C@H](CO)NC(=O)[C@@H](NC(=O)[C@H](Cc1ccccc1)NC(=O)[C@@H](NC(=O)CNC(=O)[C@H](CCC(=O)O)NC(=O)CCCCC(=O)NCCN1C(=O)CSC1=O)[C@@H](C)O)[C@@H](C)O)C(=O)N[C@@H](Cc1ccc(O)cc1)C(=O)N[C@@H](CC(C)C)C(=O)N[C@@H](CC(=O)O)C(=O)N[C@@H](CCCCN)C(=O)N[C@@H](CCC(N)=O)C(=O)N[C@@H](C)C(=O)N[C@@H](C)C(=O)NC(C)(C)C(=O)N[C@@H](CCC(=O)O)C(=O)N[C@@H](Cc1ccccc1)C(=O)N[C@H](C(=O)N[C@@H](CC(N)=O)C(=O)N[C@@H](Cc1c[nH]c2ccccc12)C(=O)N[C@@H](CC(C)C)C(=O)N[C@@H](CC(C)C)C(=O)N[C@@H](C)C(=O)NCC(=O)NCC(=O)N1CCC[C@H]1C(=O)N[C@@H](CO)C(=O)N[C@@H](CO)C(=O)NCC(=O)N[C@@H](C)C(=O)N1CCC[C@H]1C(=O)N1CCC[C@H]1C(=O)N1CCC[C@H]1C(=O)N[C@@H](CO)C(=O)N[C@@H](CCCCN)C(N)=O)C(C)C [Compound 191] |  |  |  | 97 | 97 | 68 | 68 |  |  | > 1000 | 1 to 10 | 1 to 10 | 10 to 100 | 10 to 100 | 
3 | CC[C@H](C)[C@H](NC(=O)[C@H](CO)NC(=O)[C@H](Cc1ccc(O)cc1)NC(=O)[C@H](CC(=O)O)NC(=O)[C@H](CO)NC(=O)[C@@H](NC(=O)[C@H](Cc1ccccc1)NC(=O)[C@@H](NC(=O)CNC(=O)[C@H](CCC(=O)O)NC(=O)CCC(=O)NCCN1C(=O)CSC1=O)[C@@H](C)O)[C@@H](C)O)C(=O)N[C@@H](Cc1ccc(O)cc1)C(=O)N[C@@H](CC(C)C)C(=O)N[C@@H](CC(=O)O)C(=O)N[C@@H](CCCCN)C(=O)N[C@@H](CCC(N)=O)C(=O)N[C@@H](C)C(=O)N[C@@H](C)C(=O)NC(C)(C)C(=O)N[C@@H](CCC(=O)O)C(=O)N[C@@H](Cc1ccccc1)C(=O)N[C@H](C(=O)N[C@@H](CC(N)=O)C(=O)N[C@@H](Cc1c[nH]c2ccccc12)C(=O)N[C@@H](CC(C)C)C(=O)N[C@@H](CC(C)C)C(=O)N[C@@H](C)C(=O)NCC(=O)NCC(=O)N1CCC[C@H]1C(=O)N[C@@H](CO)C(=O)N[C@@H](CO)C(=O)NCC(=O)N[C@@H](C)C(=O)N1CCC[C@H]1C(=O)N1CCC[C@H]1C(=O)N1CCC[C@H]1C(=O)N[C@@H](CO)C(=O)N[C@@H](CCCCN)C(N)=O)C(C)C [Compound 192] |  |  |  | 111 | 111 | 63 | 63 |  |  | > 1000 | 0.1 to 1 | 0.1 to 1 | 10 to 100 | 10 to 100 | 
4 | CC[C@H](C)[C@H](NC(=O)[C@H](CO)NC(=O)[C@H](Cc1ccc(O)cc1)NC(=O)[C@H](CC(=O)O)NC(=O)[C@H](CO)NC(=O)[C@@H](NC(=O)[C@H](Cc1ccccc1)NC(=O)[C@@H](NC(=O)CNC(=O)[C@H](CCC(=O)O)NC(=O)CCCC(=O)NCCN1C(=O)CSC1=O)[C@@H](C)O)[C@@H](C)O)C(=O)N[C@@H](Cc1ccc(O)cc1)C(=O)N[C@@H](CC(C)C)C(=O)N[C@@H](CC(=O)O)C(=O)N[C@@H](CCCCN)C(=O)N[C@@H](CCC(N)=O)C(=O)N[C@@H](C)C(=O)N[C@@H](C)C(=O)NC(C)(C)C(=O)N[C@@H](CCC(=O)O)C(=O)N[C@@H](Cc1ccccc1)C(=O)N[C@H](C(=O)N[C@@H](CC(N)=O)C(=O)N[C@@H](Cc1c[nH]c2ccccc12)C(=O)N[C@@H](CC(C)C)C(=O)N[C@@H](CC(C)C)C(=O)N[C@@H](C)C(=O)NCC(=O)NCC(=O)N1CCC[C@H]1C(=O)N[C@@H](CO)C(=O)N[C@@H](CO)C(=O)NCC(=O)N[C@@H](C)C(=O)N1CCC[C@H]1C(=O)N1CCC[C@H]1C(=O)N1CCC[C@H]1C(=O)N[C@@H](CO)C(=O)N[C@@H](CCCCN)C(N)=O)C(C)C [Compound 193] |  |  |  | 117 | 117 | 44 | 44 |  |  | > 1000 | 1 to 10 | 1 to 10 | 10 to 100 | 10 to 100 | 
5 | CC[C@H](C)[C@H](NC(=O)[C@H](CO)NC(=O)[C@H](Cc1ccc(O)cc1)NC(=O)[C@H](CC(=O)O)NC(=O)[C@H](CO)NC(=O)[C@@H](NC(=O)[C@H](Cc1ccccc1)NC(=O)[C@@H](NC(=O)CNC(=O)[C@H](CCC(=O)O)NC(=O)COCC(=O)NCCN1C(=O)CSC1=O)[C@@H](C)O)[C@@H](C)O)C(=O)N[C@@H](Cc1ccc(O)cc1)C(=O)N[C@@H](CC(C)C)C(=O)N[C@@H](CC(=O)O)C(=O)N[C@@H](CCCCN)C(=O)N[C@@H](CCC(N)=O)C(=O)N[C@@H](C)C(=O)N[C@@H](C)C(=O)NC(C)(C)C(=O)N[C@@H](CCC(=O)O)C(=O)N[C@@H](Cc1ccccc1)C(=O)N[C@H](C(=O)N[C@@H](CC(N)=O)C(=O)N[C@@H](Cc1c[nH]c2ccccc12)C(=O)N[C@@H](CC(C)C)C(=O)N[C@@H](CC(C)C)C(=O)N[C@@H](C)C(=O)NCC(=O)NCC(=O)N1CCC[C@H]1C(=O)N[C@@H](CO)C(=O)N[C@@H](CO)C(=O)NCC(=O)N[C@@H](C)C(=O)N1CCC[C@H]1C(=O)N1CCC[C@H]1C(=O)N1CCC[C@H]1C(=O)N[C@@H](CO)C(=O)N[C@@H](CCCCN)C(N)=O)C(C)C [Compound 194] |  |  |  | 98 | 98 |  |  |  |  | > 1000 | 1 to 10 | 1 to 10 | > 1000 | > 1000 | 12
6 | CC[C@H](C)[C@H](NC(=O)[C@H](CO)NC(=O)[C@H](Cc1ccc(O)cc1)NC(=O)[C@H](CC(=O)O)NC(=O)[C@H](CO)NC(=O)[C@@H](NC(=O)[C@H](Cc1ccccc1)NC(=O)[C@@H](NC(=O)CNC(=O)[C@H](CCC(=O)O)NC(=O)CSCC(=O)NCCN1C(=O)CSC1=O)[C@@H](C)O)[C@@H](C)O)C(=O)N[C@@H](Cc1ccc(O)cc1)C(=O)N[C@@H](CC(C)C)C(=O)N[C@@H](CC(=O)O)C(=O)N[C@@H](CCCCN)C(=O)N[C@@H](CCC(N)=O)C(=O)N[C@@H](C)C(=O)N[C@@H](C)C(=O)NC(C)(C)C(=O)N[C@@H](CCC(=O)O)C(=O)N[C@@H](Cc1ccccc1)C(=O)N[C@H](C(=O)N[C@@H](CC(N)=O)C(=O)N[C@@H](Cc1c[nH]c2ccccc12)C(=O)N[C@@H](CC(C)C)C(=O)N[C@@H](CC(C)C)C(=O)N[C@@H](C)C(=O)NCC(=O)NCC(=O)N1CCC[C@H]1C(=O)N[C@@H](CO)C(=O)N[C@@H](CO)C(=O)NCC(=O)N[C@@H](C)C(=O)N1CCC[C@H]1C(=O)N1CCC[C@H]1C(=O)N1CCC[C@H]1C(=O)N[C@@H](CO)C(=O)N[C@@H](CCCCN)C(N)=O)C(C)C [Compound 196] |  |  |  | 93 to 104 | 93 to 104 | 41 to 86 | 41 to 86 |  |  | > 1000 | 0.1 to 10 | 0.1 to 10 | 1 to 100 | 1 to 100 | 
